Data taken from patent publication US20220274983A1, “JAK KINASE INHIBITOR AND USE THEREOF” (JIANGSU CAREPHAR PHARMACEUTICAL CO., LTD., priority 2019, published 2022).
Read-outs that look alike come from different tables or passages of the source.

Experiments:
[1] = system: BaF3 cells; assay: Proliferation inhibition based on BaF3 cells (IL-3 medium, CTG); type: cell-based; conditions: Mus musculus, medium containing IL-3, read-out: IC50 (uM), proliferation inhibitory activity on BaF3 cells
Experimental: 1. Cell plating: cultured cells were collected with RPMI1640+10% FBS (containing IL-3) medium and counted for viable cells with Vi-Cell XR cell counter. The cell suspension was adjusted to an appropriate concentration with RPMI1640+10% FBS (containing IL-3) medium and then added to a 96-well cell culture plate. A certain amount of cell suspension was added to each well of the 96-well cell culture plate. The cells were cultured in corresponding incubators.
(§1) 2. Drug treatment: a series of test compound concentration (work solution-1) was prepared using DMSO with 3× gradient dilution, and then it was subjected to fold dilution with RPMI1640+10% FBS (containing IL-3) to obtain a work solution-2; Cisplatin's work solution-2 was prepared with RPMI1640+10% FBS (containing IL-3), and then 1-10 μL solution taken from the work solution-2 was added to the prepared cell wells containing medium. The cells were cultured in the corresponding incubators. An appropriate CTG solution was added to each well.
(§2) Cell Survival Rate Calculation
(§3) T is the luminescence reading of a drug treatment group, and C is the average luminescence reading of a solvent control group.

[2] = system: THP1 cells; assay: Proliferation inhibition based on THP1 cells (IL-4 stimulation, CTG); type: cell-based; conditions: Homo sapiens, THP-1, read-out: IC50 (uM), proliferation inhibitory activity on THP1 cells
Experimental: (§4) 1. Cell plating: cultured cells were collected and counted for viable cells with Vi-Cell XR cell counter. The cell suspension was adjusted to an appropriate concentration with the medium and then added to a 96-well cell culture plate. 80 μL of the cell suspension was added to each well of the 96-well cell culture plate. The cell plating density depended on the growth rate of the cells. The cells were cultured in corresponding incubators.
as §1, with “treatment and IL-4 stimulation: firstly,” for “treatment:”, “FBS” for “FBS (containing IL-3)”, “FBS,” for “FBS (containing IL-3),”, “incubators. After incubation, 1-10 μL of IL-4 medium was added to each well and continued to culture.” for “incubators.”
Cell Survial Rate Calculation
as §3

[3] = system: Hela cells; assay: Proliferation inhibition based on Hela cells (OSM stimulation, CTG); type: cell-based; conditions: Homo sapiens, read-out: IC50 (uM), proliferation inhibitory activity on Hela cells
Experimental: as §4, with “50 μL-100” for “80”
2. Drug Treatment and OSM Stimulation
Firstly, a series of test compound concentration (work solution-1) was prepared using DMSO with 3× gradient dilution, and then it was subjected to fold dilution with RPMI1640+10% FBS to obtain a work solution-2; Cisplatin's work solution-2 was prepared with RPMI1640+10% FBS, and then 1-10 μL solution taken from the work solution-2 was added to the prepared cell wells containing medium. After incubation, 1-10 μL of OSM medium was added to each well and continued to culture. An appropriate CTG solution was added to each well. The mixture was shaken and mixed for 1-5 min and then a luminescence signal was determined with an Envision2104 plate reader.
as §2, §3

[4] = target: JAK1 (Homo sapiens, UniProt P23458); assay: JAK kinase inhibitory activity, HTRF biochemical assay
Experimental: (§5) The compounds of the above embodiments were applied to the detection and screening of JAK kinase inhibitory activity.
(§6) A corresponding volume of DMSO was added to each well of a first 96-well plate. 20-30 μL of 100-200 μM stock solution of different test compounds were added to each well. The mixture was shaken and mixed for 3 min. All of the compounds were subjected to 3× serial dilution. 60-80 μL Kinase buffer was added to each well of a second 96-well plate, and 1-2 μL of the solution taken from each well of the first 96-well plate was added to the corresponding well of the second 96-well plate. The mixture was shaken and mixed for 3 min. 5 μL of compound dilution taken from each well of the second compound dilution plate was transferred to the corresponding well of a 384-well test plate. 1-2 μL TK Substrate-biotin was added to each well of the test plate. 1-2 μL of enzyme mixture was added to each well. At the same time, a blank well without enzyme was set. 1-2 μL of ATP solution was added to each well, the plate was sealed and reacted at room temperature. The reaction time was as follows: JAK1: 2 h, JAK2: 30 min, JAK3: 30 min, and TYK2: 50 min. 3-5 μL of Streptavidin-XL665 and 3-5 μL of TK Antibody-cryptate were added to each well, the plate was sealed and allowed to stand at room temperature for 30 min to complete the reaction.
(§7) The percentage of inhibition was calculated based on the following formula:
(§8) Inhibition %=[(Ratiomax−Ratiocompound)/(Ratiomax−Ratiomin)]×100%
(§9) Ratiocompound is the HTRF ratio at a given compound concentration, Ratiomin is the HTRF ratio added to the blank well, and Ratiomax is the HTRF ratio without adding the compound. GraphPad Prism 5.0 software was used to plot a sigmoid dose-inhibition rate curve with a non-linear regression model and calculate the IC50 value.

[5] = target: JAK2 (Homo sapiens, UniProt O60674); assay: as above
Experimental: as §5, §6, §7, §8, §9

[6] = Pharmacokinetic study; type: in vivo; conditions: rat, plasma; rats, oral, 1-10 mg/kg
Experimental: For the intravenous route and the oral route, the compound was formulated in an aqueous solution containing 5% DMSO+95% hydroxypropyl-β-cyclodextrin. Test animals were administered orally at 1-10 mg/kg and intravenously at 1-5 mg/kg. Each group included 3 rats. About 0.2 mL of blood was collected by jugular vein puncture with heparin sodium anticoagulant at the following time points: 0.083 h, 0.25 h, 0.5 h, 1 h, 2 h, 4 h, 6 h, 8 h, 10 h and 24 h. Plasma was separated by centrifugation at 5000-13000 rpm for 10 min within 1 hour after collecting the blood sample, and the plasma sample was analyzed on LC-MS/MS.
The pharmacokinetic parameters were calculated using Phoenix WinNonlin 7.0 based on blood drug concentration data at different time points to provide parameters such as AUC0-t, AUC0-∞, MRT0-∞, Cmax, Tmax, and T1/2.

[7] = system: rat CIA model; assay: Hindfoot foot volume in rat CIA model; type: in vivo, Lewis rats; conditions: CIA rats, hindfoot, 10 mg/kg oral gavage once daily for 2 w
Experimental: Lewis rats (female, 10-12 weeks old) were obtained from Beijing Vital River Laboratory Animal Technology Co., Ltd. The rats were on a light and dark alternation for 12 h, and the environment was kept at a temperature of 23±2° C. and a humidity of 40-70%.
Type II collagen solution (2 mg/mL) was prepared with 0.05 M acetic acid solution to allow to be fully dissolved, and placed overnight in the dark at 4° C. During the test, 2 mg/mL type II collagen (C II) solution and 4 mg/mL complete Freund's adjuvant (CFA) solution were mixed in equal volumes under ice bath conditions to fully emulsify. On day 0, an emulsion prepared by mixing equal volumes of C II (2 mg/mL) and CFA (4 mg/mL) was injected intracutaneously into the base of the tail of experimental rats for primary immunization, and on day 7, secondary booster immunization was performed.
The therapeutic effect of the test compound was tested in a rat CIA model. The rats were randomly divided into groups with 8 animals in each group. All animals were immunized on day 0 and boosted on day 7.
Therefore, the differences in body weight and foot volume after the onset of arthritis compared with the negative group, respectively, can be used to evaluate the therapeutic effect in the rat model. The experimental data were expressed as Mean±SEM; the data between the two groups was tested by unpaired t-test and p<0.05 was considered as a significant difference.

[8] = target: TYK2 (Homo sapiens, UniProt P29597); assay: JAK kinase inhibitory activity, HTRF biochemical assay
Experimental: as §5, §6, §7, §8, §9

[9] = target: T1, JAK3 (Homo sapiens, UniProt P52333); assay: as above
T1 sequence (P52333 1-1124): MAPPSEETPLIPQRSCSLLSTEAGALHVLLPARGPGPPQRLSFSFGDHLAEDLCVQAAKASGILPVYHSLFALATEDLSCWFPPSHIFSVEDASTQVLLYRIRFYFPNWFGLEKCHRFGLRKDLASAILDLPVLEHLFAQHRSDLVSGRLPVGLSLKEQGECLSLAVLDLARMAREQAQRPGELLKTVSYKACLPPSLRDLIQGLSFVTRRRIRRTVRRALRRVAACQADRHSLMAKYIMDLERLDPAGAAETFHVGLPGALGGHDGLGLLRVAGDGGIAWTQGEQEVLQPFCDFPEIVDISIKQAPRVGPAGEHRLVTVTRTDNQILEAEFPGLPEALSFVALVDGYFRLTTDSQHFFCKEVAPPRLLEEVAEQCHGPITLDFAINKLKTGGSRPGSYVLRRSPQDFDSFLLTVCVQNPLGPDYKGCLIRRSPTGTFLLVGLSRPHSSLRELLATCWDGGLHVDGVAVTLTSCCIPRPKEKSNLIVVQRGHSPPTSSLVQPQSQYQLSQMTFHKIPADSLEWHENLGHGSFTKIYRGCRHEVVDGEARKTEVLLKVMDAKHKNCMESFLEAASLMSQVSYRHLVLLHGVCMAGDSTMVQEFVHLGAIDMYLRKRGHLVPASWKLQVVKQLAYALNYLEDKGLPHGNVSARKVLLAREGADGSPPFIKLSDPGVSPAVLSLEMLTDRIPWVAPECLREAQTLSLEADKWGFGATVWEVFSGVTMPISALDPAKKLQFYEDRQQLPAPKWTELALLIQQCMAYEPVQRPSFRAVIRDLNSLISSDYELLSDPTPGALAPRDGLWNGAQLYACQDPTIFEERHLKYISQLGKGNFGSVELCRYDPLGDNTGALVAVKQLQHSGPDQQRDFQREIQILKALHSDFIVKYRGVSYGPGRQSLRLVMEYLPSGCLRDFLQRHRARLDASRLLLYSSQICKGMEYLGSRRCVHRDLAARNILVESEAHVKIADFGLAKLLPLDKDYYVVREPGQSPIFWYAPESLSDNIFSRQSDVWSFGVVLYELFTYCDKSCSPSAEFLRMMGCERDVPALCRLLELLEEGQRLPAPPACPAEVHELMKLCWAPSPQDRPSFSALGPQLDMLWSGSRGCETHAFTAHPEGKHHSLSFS
Experimental: as §5, §6, §7, §8, §9

JAK1, sequence (P23458 whole entry, species assumed): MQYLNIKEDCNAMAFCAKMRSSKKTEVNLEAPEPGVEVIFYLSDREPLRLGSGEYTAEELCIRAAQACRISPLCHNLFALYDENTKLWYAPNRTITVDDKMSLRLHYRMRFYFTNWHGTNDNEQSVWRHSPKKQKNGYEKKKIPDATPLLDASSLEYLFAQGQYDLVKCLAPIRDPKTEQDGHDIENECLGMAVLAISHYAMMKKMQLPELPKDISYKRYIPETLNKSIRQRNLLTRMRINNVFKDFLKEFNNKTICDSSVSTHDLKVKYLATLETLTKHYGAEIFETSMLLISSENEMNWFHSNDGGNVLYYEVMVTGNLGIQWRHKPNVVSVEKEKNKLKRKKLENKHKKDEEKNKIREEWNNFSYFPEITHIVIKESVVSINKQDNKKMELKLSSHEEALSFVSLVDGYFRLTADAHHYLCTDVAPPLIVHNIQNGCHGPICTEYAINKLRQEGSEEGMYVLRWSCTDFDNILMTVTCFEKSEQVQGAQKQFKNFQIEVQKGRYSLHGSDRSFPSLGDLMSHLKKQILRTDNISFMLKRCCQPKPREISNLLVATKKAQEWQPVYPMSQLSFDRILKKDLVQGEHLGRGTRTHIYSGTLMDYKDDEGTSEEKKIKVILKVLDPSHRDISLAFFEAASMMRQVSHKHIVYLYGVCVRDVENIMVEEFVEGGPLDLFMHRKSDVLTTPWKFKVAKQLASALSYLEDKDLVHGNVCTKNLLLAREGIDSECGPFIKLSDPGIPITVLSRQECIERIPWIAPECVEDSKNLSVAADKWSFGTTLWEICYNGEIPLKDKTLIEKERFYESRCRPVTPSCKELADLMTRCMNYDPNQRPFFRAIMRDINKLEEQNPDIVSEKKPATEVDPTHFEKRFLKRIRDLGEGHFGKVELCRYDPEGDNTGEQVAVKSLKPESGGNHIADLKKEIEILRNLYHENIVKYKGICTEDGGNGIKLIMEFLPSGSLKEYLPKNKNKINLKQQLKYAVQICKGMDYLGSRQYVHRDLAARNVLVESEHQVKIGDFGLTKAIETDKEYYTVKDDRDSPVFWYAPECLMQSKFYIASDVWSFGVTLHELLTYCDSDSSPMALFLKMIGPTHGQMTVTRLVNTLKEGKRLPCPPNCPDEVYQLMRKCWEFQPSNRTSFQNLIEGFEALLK
JAK2, sequence (O60674 whole entry, species assumed): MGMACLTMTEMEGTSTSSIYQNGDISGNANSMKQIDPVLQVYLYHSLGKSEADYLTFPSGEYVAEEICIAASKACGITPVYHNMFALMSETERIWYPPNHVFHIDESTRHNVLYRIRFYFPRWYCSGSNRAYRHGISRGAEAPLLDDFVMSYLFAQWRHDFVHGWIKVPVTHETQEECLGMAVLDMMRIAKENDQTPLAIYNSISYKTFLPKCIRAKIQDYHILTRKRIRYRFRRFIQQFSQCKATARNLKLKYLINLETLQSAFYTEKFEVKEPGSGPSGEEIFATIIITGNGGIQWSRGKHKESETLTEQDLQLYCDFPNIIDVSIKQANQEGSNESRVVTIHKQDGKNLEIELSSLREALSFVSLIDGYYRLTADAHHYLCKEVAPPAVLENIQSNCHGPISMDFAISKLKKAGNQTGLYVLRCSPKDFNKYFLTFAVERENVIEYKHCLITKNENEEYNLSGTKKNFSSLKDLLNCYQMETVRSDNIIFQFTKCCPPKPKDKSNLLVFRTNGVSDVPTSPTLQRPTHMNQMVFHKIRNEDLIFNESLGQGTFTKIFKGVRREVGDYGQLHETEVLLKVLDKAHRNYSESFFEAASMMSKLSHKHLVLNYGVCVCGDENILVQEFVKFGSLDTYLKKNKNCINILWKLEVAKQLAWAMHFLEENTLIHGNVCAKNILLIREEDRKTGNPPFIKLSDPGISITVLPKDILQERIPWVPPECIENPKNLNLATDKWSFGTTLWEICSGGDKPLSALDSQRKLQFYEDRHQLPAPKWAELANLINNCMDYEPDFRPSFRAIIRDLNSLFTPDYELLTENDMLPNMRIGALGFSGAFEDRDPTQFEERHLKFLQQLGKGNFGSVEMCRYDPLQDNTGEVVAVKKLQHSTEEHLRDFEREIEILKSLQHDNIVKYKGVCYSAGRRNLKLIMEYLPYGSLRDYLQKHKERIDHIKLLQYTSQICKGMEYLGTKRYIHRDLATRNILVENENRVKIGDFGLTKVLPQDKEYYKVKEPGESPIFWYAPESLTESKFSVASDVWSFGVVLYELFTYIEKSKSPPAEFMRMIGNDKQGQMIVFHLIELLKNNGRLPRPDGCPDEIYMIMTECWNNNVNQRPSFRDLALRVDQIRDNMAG
TYK2, sequence (P29597 whole entry, species assumed): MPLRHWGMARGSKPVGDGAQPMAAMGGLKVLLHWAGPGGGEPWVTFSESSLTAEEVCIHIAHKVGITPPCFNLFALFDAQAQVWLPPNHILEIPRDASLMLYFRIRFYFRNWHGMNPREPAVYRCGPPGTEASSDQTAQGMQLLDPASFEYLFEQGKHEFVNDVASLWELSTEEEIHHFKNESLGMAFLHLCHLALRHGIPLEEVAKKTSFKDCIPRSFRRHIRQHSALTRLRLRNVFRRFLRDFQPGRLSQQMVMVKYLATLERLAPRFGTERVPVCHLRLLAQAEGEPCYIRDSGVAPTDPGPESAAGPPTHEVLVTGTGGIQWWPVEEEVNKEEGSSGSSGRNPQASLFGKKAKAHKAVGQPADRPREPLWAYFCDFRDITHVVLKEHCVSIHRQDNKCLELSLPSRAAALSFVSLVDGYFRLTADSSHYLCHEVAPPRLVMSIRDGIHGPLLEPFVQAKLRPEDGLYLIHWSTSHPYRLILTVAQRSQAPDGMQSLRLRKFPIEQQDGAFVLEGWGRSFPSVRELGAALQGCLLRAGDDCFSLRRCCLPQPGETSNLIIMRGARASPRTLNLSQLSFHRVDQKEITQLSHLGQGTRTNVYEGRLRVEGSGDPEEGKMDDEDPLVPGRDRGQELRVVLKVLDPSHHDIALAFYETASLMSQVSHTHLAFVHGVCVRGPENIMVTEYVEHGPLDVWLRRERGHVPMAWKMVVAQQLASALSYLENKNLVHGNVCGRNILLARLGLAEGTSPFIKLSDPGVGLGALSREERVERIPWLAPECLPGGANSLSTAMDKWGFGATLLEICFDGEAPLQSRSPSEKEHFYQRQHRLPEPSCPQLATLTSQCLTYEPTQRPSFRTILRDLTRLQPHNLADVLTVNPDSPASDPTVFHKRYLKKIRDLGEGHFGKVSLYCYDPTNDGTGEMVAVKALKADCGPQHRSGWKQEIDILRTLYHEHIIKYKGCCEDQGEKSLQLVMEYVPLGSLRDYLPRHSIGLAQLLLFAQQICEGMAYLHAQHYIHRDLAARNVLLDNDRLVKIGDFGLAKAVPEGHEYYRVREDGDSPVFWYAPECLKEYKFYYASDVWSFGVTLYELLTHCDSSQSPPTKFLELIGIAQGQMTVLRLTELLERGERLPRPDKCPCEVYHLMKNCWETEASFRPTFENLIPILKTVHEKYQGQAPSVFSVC

IC50 [1] [µM]	IC50 [2] [µM]	IC50 ([3]; OSM stimulation) [µM]	IC50 [4] [nM]	IC50 [5] [nM]	SMILES	other results
< 5	< 5	< 5	50 to 500	50 to 500	Cc1cc(-c2cccc3nc(NC(=O)C4CC4)nn23)sc1CN1CCS(=O)(=O)CC1 [EXP-2]	
			50 to 500	50 to 500	O=C(Nc1nc2cccc(-c3ccc(CN4CCS(=O)(=O)CC4)s3)n2n1)[C@H]1C[C@@H]1F [EXP-6]	IC50 [8]: > 500 nM; IC50 [9]: > 500 nM

The next lines start with the molecule.

SMILES	IC50 [1] [µM]	IC50 [2] [µM]	IC50 ([3]; OSM stimulation) [µM]	IC50 [4] [nM]	IC50 [5] [nM]	other results
O=C(Nc1nc2cccc(-c3ccc(CN4CCS(=O)(=O)CC4)cc3)n2n1)C1CC1 [Filgotinib, reference compound]	5 to 30	5 to 30				IC50 [3]: 5 to 30 µM; AUC [6]: 2850 ng·h/mL; Cmax [6]: 426 ng/mL; half-life [6]: 3.9 h; Foot volume (ml)/Day ([7]; day 0): 2.597 ± 0.014 mL; Foot volume (ml)/Day ([7]; day 8): 2.589 ± 0.020 mL; Foot volume (ml)/Day ([7]; day 11): 2.700 ± 0.090 mL; Foot volume (ml)/Day ([7]; day 14): 3.644 ± 0.330 mL; Foot volume (ml)/Day ([7]; day 17): 4.702 ± 0.255 mL; Foot volume (ml)/Day ([7]; day 21): 4.829 mL; Foot volume (ml)/Day ([7]; day 24): 4.769 mL; Foot volume (ml)/Day ([7]; day 28): 4.363 mL
O=C(Nc1nc2cccc(-c3ccc(CN4CCS(=O)(=O)CC4)s3)n2n1)[C@H]1C[C@H]1F (relative stereo) [EXP-5, N-[5-[4-[(1,1-dioxothiomorpholine)methyl]thienyl]-[1,2,4]triazolo[1,5-a]pyridin-2-yl]-cis-2-fluoro-cyclopropanecarboxamide]	< 5	< 5	5 to 30	50 to 500	50 to 500	
O=C(Nc1nc2cccc(-c3cnc(CN4CCS(=O)(=O)CC4)s3)n2n1)C1CC1 [EXP-4, N-[5-[2-[(1,1-dioxo-1,4-thiazine-4-)methyl]thiazol-5-]-[1,2,4]triazolo[1,5-a]pyridine-2-]cyclopropylcarboxamide]	5 to 30	5 to 30	5 to 30	> 500		
